A short description of series [1]: Measurement of Log P values by HPLC on reversed phase columns (EEC directive 79/831 Annex V.A8). Type of series: physicochemical. How it is done: Measurement of Log P values as provided herein was performed according to EEC directive 79/831 Annex V.A8 by HPLC (High Performance Liquid Chromatography) on reversed phase columns with the following methods: • ^[a]
If more than one Log P value is available within the same method, all the values are given and separated by “+”.
Lambda-max-values were determined using UV-spectra from 200 nm to 400 nm and the peak values of the chromatographic signals

The test system of the next series is Septoria tritici. Nature of the series: Septoria tritici in vitro cell test. Particulars: Zymoseptoria tritici, 168 h; 20 ppm of active ingredient; liquid culture, 7 days incubation, absorbance; read-out: efficacy (inhibition of fungal growth). Type of series: cell-based. How it is done:
(§1) [table] Fungicides were solubilized in DMSO and the solution used to prepare the required range of concentrations. The final concentration of DMSO used in the assay was ≤1%. A spore suspension of S. tritici was prepared and diluted to the desired spore density. Fungicides were evaluated for their ability to inhibit spore germination and mycelium growth in liquid culture assay. The compounds were added in the desired concentration to the culture medium with spores. After 7 days incubation, fungi-toxicity of compounds was determined by spectrometric measurement of mycelium growth. Inhibition of fungal growth was determined by comparing the absorbance values in wells containing the fungicides with the absorbance in control wells without fungicides.

A further series concerns Sphaerotheca fuliginea. Nature of the series: In vivo preventive test on Sphaerotheca fuliginea (powdery mildew on cucurbits). Particulars: Podosphaera fuliginea, 192 h; 500 ppm of active ingredient; preventive spray on gherkin; evaluated 8 days after inoculation; 100% = no disease; read-out: efficacy. How it is done:
(§2) The active ingredients were made soluble and homogenized in a mixture of Dimethyl sulfoxide/Acetone/Tween® 80 and then diluted in water to the desired concentration.
The young plants of gherkin were treated by spraying the active ingredient prepared as described above. Control plants were treated only with an aqueous solution of Acetone/Dimethyl sulfoxide/Tween® 80.
After 24 hours, the plants were contaminated by spraying the leaves with an aqueous suspension of Sphaerotheca fuliginea spores. The contaminated gherkin plants were incubated for 8 days at 20° C. and at 70-80% relative humidity.
The test was evaluated 8 days after the inoculation. 0% means an efficacy which corresponds to that of the control plants while an efficacy of 100% means that no disease was observed.

The next series concerns Botrytis cinerea. The series is described as follows: In vivo preventive test on Botrytis cinerea (grey mould). Particulars: 500 ppm of active ingredient, preventive spray on gherkin or cabbage, evaluated 4 to 5 days after inoculation, 100% = no disease, read-out: efficacy. How it is done: as §2
The young plants of gherkin or cabbage were treated by spraying the active ingredient prepared as described above. Control plants were treated only with an aqueous solution of Acetone/Dimethyl sulfoxide/Tween® 80.
After 24 hours, the plants were contaminated by spraying the leaves with an aqueous suspension of Botrytis cinerea spores. The contaminated gherkin plants were incubated for 4 to 5 days at 17° C. and at 90% relative humidity. The contaminated cabbage plants were incubated for 4 to 5 days at 20° C. and at 100% relative humidity.
The test was evaluated 4 to 5 days after the inoculation. 0% means an efficacy which corresponds to that of the control plants while an efficacy of 100% means that no disease was observed.

In series [2] the test system is Colletotrichum lindemuthianum. Nature of the series: Colletotrichum lindemuthianum in vitro cell test. Type of series: cell-based. The following applies: 144 h, 20 ppm of active ingredient, liquid culture, 6 days incubation, absorbance, read-out: efficacy (inhibition of fungal growth). How it is done:
as §1, with “of C. lindemuthianum” for “of S. tritici”, “inhibit spores” for “inhibit spore”, “After 6” for “After 7”

A further series deals with Alternaria alternata. The series is described as follows: Alternaria alternata in vitro cell test. Particulars: 120 h, 20 ppm of active ingredient, liquid culture, 5 days incubation, absorbance, read-out: efficacy (inhibition of fungal growth). Type of series: cell-based. How it is done:
as §1, with “<1%.” for “≤1%.”, “A. alternata” for “S. tritici”, “5” for “7”

For the next series, the system named is Alternaria brassicae. The series is described as follows: In vivo preventive test on Alternaria brassicae (leaf spot on radish or cabbage). The following applies: 144 h, 500 ppm of active ingredient, preventive spray on radish or cabbage, evaluated 6 days after inoculation, 100% = no disease, read-out: efficacy. How it is done: as §2
The young plants of radish or cabbage were treated by spraying the active ingredient prepared as described above. Control plants were treated only with an aqueous solution of Acetone/Dimethyl sulfoxide/Tween® 80.
After 24 hours, the plants were contaminated by spraying the leaves with an aqueous suspension of Alternaria brassicae spores. The contaminated radish or cabbage plants were incubated for 6 days at 20° C. and at 100% relative humidity.
The test was evaluated 6 days after the inoculation. 0% means an efficacy which corresponds to that of the control plants while an efficacy of 100% means that no disease was observed.

The subject of another series is Pyrenophora teres. The series is described as follows: In vivo preventive test on Pyrenophora teres (net blotch on barley). Particulars: 240 h, 500 ppm of active ingredient, preventive spray on barley, evaluated 10 days after inoculation, 100% = no disease, read-out: efficacy. How it is done:
as §2
The young plants of barley were treated by spraying the active ingredient prepared as described above. Control plants were treated only with an aqueous solution of Acetone/Dimethyl sulfoxide/Tween® 80.
After 24 hours, the plants were contaminated by spraying the leaves with an aqueous suspension of Pyrenophora teres spores. The contaminated barley plants were incubated for 48 hours at 20° C. and at 100% relative humidity and then for 8 days at 20° C. and at 70-80% relative humidity.
The test was evaluated 10 days after the inoculation. 0% means an efficacy which corresponds to that of the control plants while an efficacy of 100% means that no disease was observed.

Structures are written as SMILES.

What is called LogP is a log measure of how a compound divides between an organic and an aqueous phase. High values mean higher lipophilicity, low ones lower lipophilicity. As for `Cc1ccc(C(F)(F)CNC(=O)c2cc(C)nnc2Cl)c(C)c1` [3-06], the LogP in series [1] (method [a]: LC-UV, acidic range, 0.1% formic acid in water / acetonitrile, Table 7, formula (3)) was 3.20^[a].
Broadly, the inhibition is the percentage by which the read-out fell short of the control. As to `Cc1ccc(C(F)(F)CNC(=O)c2c(Oc3cccc(Cl)c3)nnc(Cl)c2C)c(C)c1` [I-790, 6-chloro-3-(3-chlorophenoxy)-N-[2-(2,4-dimethylphenyl)-2,2-difluoro-ethyl]-5-methyl-pyridazine-4-carboxamide], the inhibition at 20 ppm in the series on Septoria tritici lay in the range of 70 to 79%; in series [2], 90 to 100%; in the series with Alternaria alternata, 90 to 100%. Also, the pest or weed control at 500 ppm in the series on Sphaerotheca fuliginea, with Botrytis cinerea and in the series with Alternaria brassicae was 90 to 100% in each case.
Regarding `Cc1ccc(C(F)(F)CNC(=O)c2c(Oc3cccc(C(F)(F)F)c3)nnc(Cl)c2NC2CC2C2CC2)c(C)c1` (stereo not drawn) [I-812], in series [1] (method [a]), the LogP was 4.87^[a].
On to `O=C(O)c1ccnnc1Oc1cccc(C(F)(F)F)c1` [1-129], for which the log partition coefficient (LogP) in series [1] (method [a]: LC-UV, acidic range, 0.1% formic acid in water / acetonitrile, Table 3, formula (1)) was 1.47^[a].
As for `Cc1ccc(C(F)(F)CNC(=O)c2c(Oc3cccc(C(F)(F)F)c3)nnc(Cl)c2-c2cccnc2)c(C)c1` [I-550, 6-chloro-N-[2-(2,4-dimethylphenyl)-2,2-difluoro-ethyl]-5-(3-pyridyl)-3-[3-(trifluoromethyl)phenoxy]pyridazine-4-carboxamide], the inhibition at 20 ppm (with Septoria tritici; in series [2]; with Alternaria alternata) was 90 to 100% in each case. For the same molecule, the pest or weed control at 500 ppm in the series with Sphaerotheca fuliginea, in the series with Botrytis cinerea and in the series on Alternaria brassicae was 90 to 100% throughout.
On to `Cc1ccc(C(F)(F)CNC(=O)c2c(Oc3cccc(C4CC4)c3F)nnc(Cl)c2C)c(Br)c1` [I-840], for which the LogP in series [1] (method marked [a], HPLC on reversed phase columns) is 4.57^[a].
With `Cc1cc(C(=O)NCCc2ccc(C(F)F)cn2)c(Oc2cccc(C(F)(F)F)c2)nn1` [I-525], the lipophilicity (LogP) in series [1] (LogP method [a]) is 2.57; in series [1] (LogP method [b]), 2.71.
On to `COCCc1c(Cl)nnc(Oc2cccc(C(F)(F)F)c2)c1C(=O)NCC(F)(F)c1ccc(Br)cc1Cl` [I-070, N-[2-(4-bromo-2-chloro-phenyl)-2,2-difluoro-ethyl]-6-chloro-5-(2-methoxyethyl)-3-[3-(trifluoromethyl)phenoxy]pyridazine-4-carboxamide], for which the inhibition at 20 ppm (in the series on Septoria tritici; in series [2]; with Alternaria alternata) was 90 to 100% throughout. Moreover, the pest or weed control at 500 ppm in the series on Sphaerotheca fuliginea, with Botrytis cinerea, with Pyrenophora teres and in the series with Alternaria brassicae was 90 to 100% in each case.
`O=C(NCC(F)(F)c1ccc(Br)cc1Cl)c1cc(C2CC2)nnc1Oc1cccc(C(F)(F)F)c1` [I-312]: the figures for the LogP in series [1] (method [a]) and in series [1] (method [b]) were 4.79 and 4.68, respectively.

These data come from US12414565B2, “Pyridazine (THIO)amides as fungicidal compounds” (Bayer Aktiengesellschaft, priority 2018, dated 2025).
